Data as given in patent publication US20240374579A1, “BICYCLIC PGDH INHIBITORS AND METHODS OF MAKING AND USING” (EPIRIUM BIO INC., priority 2021, published 2024).

How the values were obtained:
[1] = biological target: T1, 15-PGDH (Homo sapiens, UniProt P15428); experiment: A549 cell based assay: PGE2 in supernatant (HTRF), fold induction over IL-1β; conditions: A549 cells; for fold induction at 0.001 µM: compound 0.001 μM plus IL-1β versus IL-1β only, read-out: PGE2-HTRF over IL1-β: Fold induction at 0.001 μM; for fold induction at 0.01 µM: compound 0.01 μM plus IL-1β versus IL-1β only, read-out: PGE2-HTRF over IL1-β: Fold induction at 0.01 μM; for fold induction at 0.1 µM: compound 0.1 μM plus IL-1β versus IL-1β only, read-out: PGE2-HTRF over IL1-β: Fold induction at 0.1 μM; for fold induction at 1 µM: compound 1 μM plus IL-1β versus IL-1β only, read-out: PGE2-HTRF over IL1-β: Fold induction at 1 μM
T1 construct: endogenous in cells; host or cells: A549 human lung adenocarcinoma cells
T1 sequence (P15428 1-266): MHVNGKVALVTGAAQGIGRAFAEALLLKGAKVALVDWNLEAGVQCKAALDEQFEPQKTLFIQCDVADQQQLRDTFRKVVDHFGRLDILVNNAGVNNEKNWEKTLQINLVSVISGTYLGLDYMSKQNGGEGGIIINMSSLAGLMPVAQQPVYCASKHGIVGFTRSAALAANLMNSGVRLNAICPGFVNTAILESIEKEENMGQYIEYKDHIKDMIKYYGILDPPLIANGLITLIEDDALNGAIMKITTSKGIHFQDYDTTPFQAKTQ
Experimental: Cell Based Assay: 15-PGDH is highly expressed in resting human lung adenocarcinoma cells (A549) (Tong et al., 2006), and this cell line was used to assess 15-PGDH inhibition by MF-300Na in vitro.
In this assay, A549 cells are treated with interleukin (IL) 1β, which induces the expression of cycloxygenase-2 and the synthesis of PGE2 (Tong et al., 2006). In the studies evaluating test articles, thirty thousand A549 cells were seeded in 100 μL F12K completed media and incubated for 24 hours at 37° C. with 5% CO2 before being serum-starved for 24 hours. On the day of the experiment, buffer was changed to complete medium, and cells were incubated for 30 minutes with compounds prior to the addition of IL-1β (final concentration of 0.1-0.25 ng/mL) overnight at 37° C. with 5% CO2. Each concentration was run in triplicate. […] The PGE2 in the supernatant was detected and quantified using a Cisbio HTRF technology (Homogeneous Time-Resolved Fluorescence) kit (62P2APEG-62P2APEH) according to the manufacturer's recommendations, quantifying the fold induction of PGE2 of cells treated with IL-1b plus test article, versus treatment with IL-1b only.

[2] = biological target: T2, 15-PGDH/HPGD (Homo sapiens, UniProt P15428); experiment: hPGDH inhibitor screening biochemical assay; conditions: 10 nM enzyme, 15 μM PGE2, 0.25 mM NAD, fluorescence ex/em 340/485 nm
T2 construct: purchased R&D System 5660-DH
T2 sequence (P15428 1-266): T1 sequence (P15428 1-266)
Experimental: A hydroxyprostaglandin dehydrogenase inhibition screening biochemical assay can be performed to assess the synthesized inhibitors provided herein. Provided herein is an exemplary biochemical assay for hPGDH inhibitor screening.
The in vitro biochemical assay can be performed in white, 384 plates in total 20 μl reaction volume consisting of 10 nM of 15-PGDH/HPGD (R&D System #5660-DH), 15 μM Prostaglandin E2 (Sigma, Cat #P5640-10MG) and 0.25 mM β-Nicotinamide adenine dinucleotide sodium salt (Sigma, Cat #N0632-5G) made in reaction buffer (50 mM Tris-HCl, pH 7.5, 0.01% Tween 20) at 10-point dose response curve for test/tool compounds. Briefly, 5 μl (4×) of compounds solution and 5 μl (final concentration, 10 nM) of enzyme solution is added to white 384 well plates and incubated for 10 mins at 37° C. 5 μl (4×) of Prostaglandin E2 and 5 μl (4×) of β-Nicotinamide adenine dinucleotide sodium salt is added to the wells and incubated for 10 mins at room temperature. Fluorescence is recorded at ex/em=340 nm/485 nm. The percentage ([…]) inhibition of enzyme activity was determined relative to positive control (1% DMSO) and IC50 was calculated using GraphPad prism software (four parameter-variable slope equation).

| Compound | fold induction at 0.001 µM [1] | fold induction at 0.01 µM [1] | fold induction at 0.1 µM [1] | fold induction at 1 µM [1] | IC50 [2] [nM] |
| --- | --- | --- | --- | --- | --- |
| C[C@H]1CCCN(C(=O)c2cnc3c(cnn3-c3ccc(N4CCOC4=O)nc3)c2)C1 [Compound C-25] | 2.08 | 3.56 | 4.84 | 6.39 | < 100 |
| C[C@H]1CCCN(C(=O)c2cnc3c(cnn3-c3ccc4nc(N)nn4c3)c2)C1 [Compound C-27] | 1.04 | 2.06 | 3.36 | 4.68 | < 100 |
| O=C(c1cnc2c(cnn2-c2ccc(-c3ncn[nH]3)cc2)c1)N1CCC(F)(F)CC1 [Compound C-6] | 0.98 | 2.14 | 5.31 | 4.88 | < 100 |
| C[C@H]1CCCN(C(=O)c2cnc3c(c2)nnn3-c2ccc(-c3nnc[nH]3)cc2)C1 [Compound C-19] | 1.11 | 1.81 | 3.61 | 4.5 | < 100 |
| O=C(c1ccc2c(c1)nnn2-c1ccc(-c2ncn[nH]2)nc1)N1CCC(F)(F)CC1 [Compound C-9, (1-(6-(1H-1,2,4-triazol-5-yl)pyridin-3-yl)-1H-benzo[d][1,2,3]triazol-5-yl) (4,4-difluoropiperidin-1-yl)methanone] | – | – | – | – | 100 to 1000 |
| O=C(O)c1ccc(-n2cnc3cc(C(=O)N4CCC(F)(F)CC4)ccc32)cc1 [Compound C-17, 4-(5-(4,4-difluoropiperidine-1-carbonyl)-1H-benzo[d]imidazol-1-yl) benzoic acid] | – | – | – | – | < 100 |
| C[C@H]1CCCN(C(=O)c2cnc3c(cnn3-c3ccc(N4CCOCC4)nc3)c2)C1 [Compound C-26] | 1.05 | 1.31 | 1.8 | 3.45 | – |
| O=C(O)c1ccc(-n2nnc3cc(C(=O)N4CCC(F)(F)CC4)ccc32)cc1 [Compound C-11, 4-(5-(4,4-difluoropiperidine-1-carbonyl)-1H-benzo[d][1,2,3]triazol-1-yl) benzoic acid] | – | – | – | – | 100 to 1000 |

The remaining lines, values ahead:

| fold induction at 0.001 µM [1] | fold induction at 0.01 µM [1] | fold induction at 0.1 µM [1] | fold induction at 1 µM [1] | IC50 [2] [nM] | Compound |
| --- | --- | --- | --- | --- | --- |
| 3.78 | 4.08 | 6.4 | 4.88 | – | Cc1nc(-c2ccc(-n3nnc4cc(C(=O)N5CCC[C@H](C)C5)cnc43)cc2)no1 [Compound C-29] |
| 1.04 | 0.76 | 2.06 | 3.61 | – | O=C(c1cnc2c(cnn2-c2cncc(N3CCOCC3)c2)c1)N1CCC(F)(F)CC1 [Compound C-28] |
| 1.16 | 1.68 | 2.5 | 3.79 | – | CCOc1ccc(-n2nnc3cc(C(=O)N4CCC[C@H](C)C4)cnc32)cc1 [Compound C-30] |
| 4.07 | 4.94 | 4.94 | 4.86 | < 100 | C[C@H]1CCCN(C(=O)c2cnc3c(cnn3-c3ccc(N4CCNC4=O)nc3)c2)C1 [Compound C-57] |
| 0.91 | 3.09 | 4.74 | 4.32 | – | O=C(c1cnc2c(cnn2-c2ccc(-c3nnc[nH]3)cc2)c1)N1CCCC(F)(F)C1 [Compound C-59] |
| – | – | – | – | < 100 | O=C(c1cnc2c(cnn2-c2cccc(-c3nnc[nH]3)c2)c1)N1CCC(F)(F)CC1 [Compound C-41, (1-(3-(4H-1,2,4-triazol-3-yl)phenyl)-1H-pyrazolo[3,4-b]pyridin-5-yl)(4,4-difluoropiperidin-1-yl)methanone] |
| – | – | – | – | 100 to 1000 | CCOC(=O)Nc1cncc(-n2ncc3cc([S+]([O-])CC4CC4)cnc32)c1 (stereo not shown) [Compound C-90] |
| – | – | – | – | 100 to 1000 | O=C(c1cnc2c(cnn2-c2ccc(-c3nnc[nH]3)cc2)c1)N1CCCC(C(F)(F)F)C1 (stereo not shown) [Compound C-58] |
| – | – | – | – | 100 to 1000 | CCCC[S+]([O-])c1cnc2c(cnn2-c2cncc(NC(=O)OCC)c2)c1 (stereo not shown) [Compound C-94] |
